Results published in ChEMBL document CHEMBL1131757, “4,10-dihydro-5H-thieno[3,2-c][1]benzazepine derivatives and 9,10-dihydro-4H-thieno[2,3-c][1]benzazepine derivatives as orally active arginine vasopressin receptor antagonists” (Bioorg Med Chem Lett, 1999).

How the values were obtained:
Vasopressin V1a receptor [1] = target: T1, Vasopressin V1a receptor (Homo sapiens, UniProt P37288); test: In vitro inhibition of [3H]- AVP binding to V1a receptor from human platelet membrane at 10 uM
Target sequence in this assay (P37288 whole entry, looked up): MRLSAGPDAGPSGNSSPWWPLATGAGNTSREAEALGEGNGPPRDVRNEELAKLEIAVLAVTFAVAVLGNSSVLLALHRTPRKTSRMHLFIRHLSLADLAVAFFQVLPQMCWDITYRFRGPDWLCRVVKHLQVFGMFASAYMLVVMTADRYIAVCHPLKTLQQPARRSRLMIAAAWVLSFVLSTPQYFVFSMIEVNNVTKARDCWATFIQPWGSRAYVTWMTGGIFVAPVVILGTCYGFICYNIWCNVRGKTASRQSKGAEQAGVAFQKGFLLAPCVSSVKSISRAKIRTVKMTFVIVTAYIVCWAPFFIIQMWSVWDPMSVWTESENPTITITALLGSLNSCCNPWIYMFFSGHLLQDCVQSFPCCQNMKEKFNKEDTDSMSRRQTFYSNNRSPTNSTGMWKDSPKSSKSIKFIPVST

Rattus norvegicus = test: Amount of urine output was measured in rat at a dose of 10 mg/kg administered orally; assay type: ADME, organism-based; design: dose 10 mg/kg, route oral; settings: in vivo, po
Vasopressin V2 receptor = Vasopressin V2 receptor (Homo sapiens, UniProt P30518); test: In vitro inhibition of [3H]AVP binding to human V2 receptor from murine fibroblast cell line (LV2); assay type: cell-based
Vasopressin V1a receptor [2] = target: T1, Vasopressin V1a receptor; test: In vitro inhibition of [3H]- AVP binding to V1a receptor from human platelet membrane
Target sequence in this assay (P37288 whole entry): as the sequence (P37288 whole entry, looked up) above

Sequence of Vasopressin V2 receptor (P30518 whole entry): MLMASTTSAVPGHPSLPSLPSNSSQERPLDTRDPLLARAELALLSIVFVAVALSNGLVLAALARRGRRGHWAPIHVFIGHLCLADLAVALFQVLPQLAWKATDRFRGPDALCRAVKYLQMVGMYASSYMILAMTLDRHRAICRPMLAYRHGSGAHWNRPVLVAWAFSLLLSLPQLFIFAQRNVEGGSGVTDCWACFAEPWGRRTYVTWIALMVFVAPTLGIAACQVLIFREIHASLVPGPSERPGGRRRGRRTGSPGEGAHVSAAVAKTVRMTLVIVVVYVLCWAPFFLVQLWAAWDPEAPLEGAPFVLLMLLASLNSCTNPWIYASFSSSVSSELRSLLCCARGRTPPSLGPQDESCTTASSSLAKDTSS

SMILES | inhibition (Vasopressin V1a receptor [1]) | Urine volume (Rattus norvegicus) | IC50 (Vasopressin V2 receptor) | IC50 (Vasopressin V1a receptor [2])
Cc1ccc(F)cc1C(=O)Nc1ccc(C(=O)N2Cc3sccc3Cc3ccccc32)c(Cl)c1 | 59% | 30 ml 4hr-1 | 6.8 nM | 
Cc1ccc(F)cc1C(=O)Nc1ccc(C(=O)N2Cc3sccc3Cc3ccccc32)cn1 |  | 16.5 ml 4hr-1 |  | 
Cc1ccc(F)cc1C(=O)Nc1ccc(C(=O)N2Cc3cccn3Cc3ccccc32)c(Cl)c1 [LIXIVAPTAN] |  | 35 ml 4hr-1 |  | 
Cc1ccccc1C(=O)Nc1ccc(C(=O)N2Cc3sccc3Cc3ccccc32)cc1 |  | 13.5 ml 4hr-1 | 0.7 nM | 8.5 nM
Cc1ccccc1C(=O)Nc1ccc(C(=O)N2Cc3ccsc3Cc3ccccc32)cc1 |  | 4.5 ml 4hr-1 |  | 
O=C(Nc1ccc(C(=O)N2Cc3sccc3Cc3ccccc32)cc1)c1ccc(Cl)cc1Cl |  | 5.8 ml 4hr-1 | 19 nM | 43 nM
